Assay results reported in US20230058623A1, “NOVEL HETEROARYL-TRIAZOLE COMPOUNDS AS PESTICIDES” (Bayer Aktiengesellschaft, priority 2019, published 2023).

Key:
Type in all cases: in vivo
[1] = tested on: adult brown dog ticks (Rhipicephalus sanguineus); experiment: Rhipicephalus sanguineus in-vitro contact test, adult brown dog ticks; conditions: application rate 5 μg/cm^2 (=500 g/ha), after 48 hours, read-out: activity (efficacy: ticks dead or moribund)
Procedure, shortened: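 Read-out: % efficacy as dead or moribund ticks, judged 48 h after exposure by failure to climb away from a 45-50° C heating plate within 5 min. Tubes were coated with acetone solution (900 ppm = 5 μg/cm^2 surface dose) and held 5-10 adults each at room temperature.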

[2] = tested on: larvae of the southern green stink bug (Nezara viridula); experiment: Nezara viridula spray test; conditions: 96 h, after 4 days, barley plants; for mortality at 100 g/ha: application rate 100 g/ha; for mortality at 500 g/ha: application rate 500 g/ha, read-out: activity (mortality)
Procedure, shortened: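 Barley plants sprayed with the active compound in emulsifier-containing water, then infested with stink bug larvae. Mortality scored in % after 4 days, with 100% meaning all insects killed.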

[3] = tested on: Rhipicephalus (Boophilus) microplus larvae (strain Parkhurst, resistant against synthetic pyrethroids); experiment: Rhipicephalus (Boophilus) microplus in-vitro contact test, larval cattle tick; conditions: after 48 hours, read-out: activity (efficacy: larvae dead or moribund); for pest or weed control at 1 µg/cm2, 100 g/ha: application rate 1 μg/cm^2 (=100 g/ha); for pest or weed control at 5 µg/cm2, 500 g/ha: application rate 5 μg/cm^2 (=500 g/ha)
Procedure, shortened: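 Pyrethroid-resistant Parkhurst larvae, 20–50 per tube, were kept 48 h at 27 °C and 85% relative humidity in glass tubes whose inner walls carried a dried acetone film of compound (900 ppm giving 5 μg/cm^2). Dead or moribund larvae, judged by loss of negative geotactic behavior, set percent efficacy.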

[4] = tested on: adult cat fleas (Ctenocephalides felis); experiment: Ctenocephalides felis in-vitro contact test, adult cat flea; conditions: application rate 5 μg/cm^2 (=500 g/ha), after 48 hours, read-out: activity (efficacy: fleas dead or moribund)
Procedure, shortened: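 After 48 h of room-temperature exposure in tubes whose walls carried dried compound residue (5 μg/cm^2, from 900 ppm acetone solution), adult cat fleas (5-10 per tube) were heat-challenged at 45-50° C up to 5 min. Fleas unable to climb away were counted dead or moribund, expressed as % efficacy.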

[5] = tested on: adult flies Musca domestica strain WHO-N; experiment: Musca domestica test (MUSCDO surface treatment & contact assay); conditions: 24 hours after contact, read-out: efficacy (mortality); for mortality at 4 mg/m2: surface concentration 4 mg/m^2, exposure 30 minutes; for mortality at 20 mg/m2: surface concentration 20 mg/m^2, exposure 30 minutes
Procedure, shortened: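 Compound dissolved at 2 mg/ml in acetone with 2000 ppm RME, applied to glazed tile and dried; adult flies exposed on the surface for 30 min. Percent mortality scored 24 h after contact.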

[6] = tested on: green peach aphid (Myzus persicae); experiment: Myzus persicae oral test; conditions: 120 h, read-out: activity (mortality)
Procedure, shortened: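 Five-day oral feeding assay measuring percent mortality of a mixed aphid population that draws compound-containing sugared IPL41 medium through sealing parafilm; the test preparation derives from 1 part compound per 100 parts acetone, diluted with water.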

[7] = tested on: larvae of the banded cucumber beetle (Diabrotica balteata); experiment: Diabrotica balteata spray test; conditions: 168 h, after 7 days, wheat seeds, read-out: activity (efficacy: seedlings grown); for pest or weed control at 32 µg/disc, 100 g/ha: application rate 100 g/ha (=32 μg/well)
Procedure, shortened: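 Efficacy (%) read 7 days after infesting treated seedlings with 10-20 banded cucumber beetle larvae, 100% meaning growth as in uninfected untreated control and 0% no growth. Test solutions in water containing 1000 ppm emulsifier were sprayed onto wheat seeds germinated for 1 day on agar.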

[8] = tested on: adult unfed cat fleas (Ctenocephalides felis); experiment: Ctenocephalides felis oral test; conditions: 48 h, read-out: activity (mortality)
Procedure, shortened: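 About 20 adult unfed cat fleas fed through parafilm on citrated cattle blood containing compound (from a DMSO concentrate). Blood held at 37° C, fleas at room temperature. Mortality in % scored after 2 days.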

Compound | pest or weed control at 5 µg/cm2, 500 g/ha [1] [%] | mortality at 100 g/ha [2] [%] | mortality at 500 g/ha [2] [%] | pest or weed control at 1 µg/cm2, 100 g/ha [3] [%] | pest or weed control at 5 µg/cm2, 500 g/ha [3] [%] | pest or weed control at 5 µg/cm2 [4] [%] | mortality at 4 mg/m2 [5] [%] | mortality at 20 mg/m2 [5] [%] | mortality at 4 ppm [6] [%] | pest or weed control at 32 µg/disc, 100 g/ha [7] [%] | pest or weed control at 160 µg/disc, 500 g/ha ([7]; application rate 500 g/ha (=160 μg/well)) [%] | mortality at 100 ppm [8] [%]
C[C@H](NC(=O)c1cc(C(F)(F)F)cc(C(F)(F)F)c1)c1ncnn1-c1ccc(C(=O)N2CCOCC2)cn1 [Example I-2] | 100 | 100 | 100 | 100 | 100 | 100 | 80 to 100 | 80 to 100 | 100 | 100 | 100 | –
Cc1nc([C@H](C)NC(=O)c2cc(C(F)(F)F)cc(C(F)(F)F)c2)n(-c2ncc(C(=O)N3CCOCC3)s2)n1 [Example I-4] | 100 | – | – | 100 | 100 | 80 | 80 to 100 | – | 100 | 100 | – | 100
CC1CN(C(=O)c2ccc(-n3ncnc3[C@H](C)NC(=O)c3cc(C(F)(F)F)cc(C(F)(F)F)c3)nc2)CC(C)O1 (stereo partly shown) [Example I-5] | 100 | – | – | 100 | 100 | 100 | 80 to 100 | 80 to 100 | 100 | – | – | 100
Cc1nc([C@H](C)NC(=O)c2cc(C(F)(F)F)cc(C(F)(F)F)c2)n(-c2ccc(C(=O)N3CCOCC3)cn2)n1 [Example I-9, N-[(1S)-1-{3-methyl-1-[5-(morpholin-4-ylcarbonyl)pyridin-2-yl]-1H-1,2,4-triazol-5-yl}ethyl]-3,5-bis(trifluoromethyl)benzamide] | 100 | 100 | – | 100 | 100 | 100 | 80 to 100 | 80 to 100 | 100 | 100 | – | –
C[C@H](NC(=O)c1cc(C(F)(F)F)cc(C(F)(F)F)c1)c1ncnn1-c1ccc(C(=O)N2CCCC2)cn1 [Example I-11] | 100 | 100 | – | 100 | 100 | 100 | – | 80 to 100 | 100 | 80 | – | –
COC1CN(C(=O)c2ccc(-n3ncnc3[C@H](C)NC(=O)c3cc(C(F)(F)F)cc(C(F)(F)F)c3)nc2)C1 [Example I-15] | 100 | – | – | 100 | 100 | 100 | – | 80 to 100 | 100 | 80 | – | 100
C[C@H](NC(=O)c1cc(Cl)cc(C(F)(F)F)c1)c1ncnn1-c1ccc(C(=O)N2CCS(=O)(=O)CC2)cn1 [Example I-35] | 100 | 100 | – | 100 | 100 | 100 | – | – | 100 | 100 | – | 100
C[C@@H]1CN(C(=O)c2ccc(-n3ncnc3[C@H](C)NC(=O)c3cc(C(F)(F)F)cc(C(F)(F)F)c3)nc2)CCO1 [Example I-69] | 100 | – | – | 100 | 100 | 100 | 80 to 100 | 80 to 100 | 100 | 100 | – | –
C[C@H](NC(=O)c1cc(C(F)(F)F)cc(C(F)(F)F)c1)c1ncnn1-c1ccc(C(=O)N2CCS(=O)(=O)CC2)cn1 [Example I-75] | 100 | – | 100 | 100 | 100 | 100 | 80 to 100 | 80 to 100 | 100 | 100 | – | –
Cc1nc([C@H](C)NC(=O)c2cc(C(F)(F)F)cc(C(F)(F)F)c2)n(-c2ccc(C(=O)N3CCS(=O)(=O)CC3)cn2)n1 [Example I-76] | 100 | – | 100 | 100 | 100 | 100 | 80 to 100 | 80 to 100 | 100 | – | – | –
C[C@H](NC(=O)c1cc(C(F)(F)F)cc(C(F)(F)F)c1)c1ncnn1-c1ccc(C(=O)N2C[C@H](C)O[C@@H](C)C2)cn1 [Example I-94] | 100 | 100 | – | 100 | 100 | 100 | 80 to 100 | 80 to 100 | – | 100 | – | 100
C[C@@H]1CN(C(=O)c2ccc(-n3ncnc3[C@H](C)NC(=O)c3cc(OC(F)(F)F)cc(C4CC4)c3)nc2)C[C@H](C)O1 [Example I-114] | 100 | – | – | 100 | 100 | 100 | 80 to 100 | 80 to 100 | 100 | 100 | – | 100
